Measurements: ChEMBL document CHEMBL1795238, “Structure-brain exposure relationships in rat and human using a novel data set of unbound drug concentrations in brain interstitial and cerebrospinal fluids” (J Med Chem, 2009)

Experiments:
Plasma = conditions: rat, iv, 4 h
Brain = conditions: rat, in vivo, iv, 4 h
in vivo [1] = conditions: Sprague-Dawley, rat, iv, 2 (umol/kg)/hr
in vivo [2] = conditions: Sprague-Dawley, rat, iv, 2 (umol/kg)/hr; remark: listed apart in the source
in vivo [3] = conditions: Sprague-Dawley, rat, iv, 2 (umol/kg)/hr; remark: listed apart in the source
in vitro = conditions: Sprague-Dawley, rat, plasma, iv, 2 (umol/kg)/hr
clinical = conditions: human, CSF and plasma

SMILES | Cp(f) (Plasma) [nM] | Vdu (Brain) [mL] | Kp at 4 h (in vivo [1]; brain) | Kp uu at 4 h (in vivo [2]; brain) | Kp uu at 4 h (in vivo [3]; csf) | fraction unbound at 4 h (in vitro) | Kp uu (clinical) | Kp at 4 h (in vivo [1]; brain and plasma) | Kp uu at 4 h (in vivo [2]; brain and plasma) | Kp uu at 4 h (in vivo [3]; CSF and plasma)
O=C(O)c1ccccc1O [SALICYLIC ACID] | 5600 | 1 | 0.05 | 0.19 | 0.16 | 0.28 | 0.19 |  |  | 
COc1ccc2c3c1O[C@H]1C(=O)CC[C@@]4(O)[C@@H](C2)N(C)CC[C@]314 [OXYCODONE] | 330 |  |  |  |  | 0.87 |  |  |  | 
CCC(C(N)=O)(C(N)=O)c1ccccc1 [PHENYLETHYLMALONAMIDE] | 4300 | 0.9 |  |  |  | 0.55 |  | 0.64 | 1.25 | 1.4
CN(C)C(=O)C(CCN1CCC(O)(c2ccc(Cl)cc2)CC1)(c1ccccc1)c1ccccc1 [LOPERAMIDE] | 54 | 370 |  |  |  | 0.06 |  | 0.15 | 0.007 | 0.037
C[C@H]1COc2c(N3CCN(C)CC3)c(F)cc3c(=O)c(C(=O)O)cn1c23.C[C@H]1COc2c(N3CCN(C)CC3)c(F)cc3c(=O)c(C(=O)O)cn1c23.O [LEVOFLOXACIN] | 590 | 1.7 |  |  |  | 0.82 | 0.18 | 0.17 | 0.12 | 0.19
CC(C)Nc1cccnc1N1CCN(C(=O)c2cc3cc(NS(C)(=O)=O)ccc3[nH]2)CC1 [DELAVIRDINE] | 17 | 40 | 0.03 | 0.043 | 0.051 | 0.016 | 0.23 |  |  | 
CN1CC[C@]23c4c5ccc(O)c4O[C@H]2C(=O)CC[C@@]3(O)[C@H]1C5 [OXYMORPHONE] | 240 | 4 |  |  |  | 0.73 |  | 2.29 | 0.79 | 0.91
NCC(CC(=O)O)c1ccc(Cl)cc1 (configuration not stated) [BACLOFEN] | 4200 | 1.7 |  |  |  | 1 | 0.17 | 0.03 | 0.02 | 0.027
CN(Cc1cnc2nc(N)nc(N)c2n1)c1ccc(C(=O)N[C@@H](CCC(=O)O)C(=O)O)cc1 [METHOTREXATE] | 2900 | 0.68 | 0.004 | 0.006 | 0.007 | 1 | 0.062 |  |  | 
CO[C@H]1/C=C/O[C@@]2(C)Oc3c(C)c(O)c4c(O)c(c(/C=N/N5CCN(C)CC5)c(O)c4c3C2=O)NC(=O)/C(C)=C\C=C\[C@H](C)[C@H](O)[C@@H](C)[C@@H](O)[C@@H](C)[C@H](OC(C)=O)[C@@H]1C [RIFAMPIN] | 830 |  |  |  |  | 0.12 |  |  |  | 
O=C1CN(/N=C/c2ccc([N+](=O)[O-])o2)C(=O)N1 [NITROFURANTOIN] | 710 | 1.6 | 0.008 | 0.011 | 0.0099 | 0.48 |  |  |  | 
COc1ccc(CCN(C)CCCC(C#N)(c2ccc(OC)c(OC)c2)C(C)C)cc1OC (configuration not stated) | 75 |  |  |  |  |  |  |  |  | 
CCCC(C)C1(CC)C(=O)NC(=S)NC1=O (configuration not stated) [THIOPENTAL] | 550 |  |  |  |  | 0.19 |  |  |  | 
CN1CC[C@]23c4c5ccc(O)c4O[C@H]2[C@@H](O[C@@H]2O[C@H](C(=O)O)[C@@H](O)[C@H](O)[C@H]2O)C=C[C@H]3[C@H]1C5 [MORPHINE GLUCURONIDE] | 2100 | 0.99 |  |  |  | 0.98 | 0.1 | 0.008 | 0.008 | 0.017
NCC1(CC(=O)O)CCCCC1 [GABAPENTIN] | 5200 | 4.6 |  |  |  | 1 | 0.16 | 0.64 | 0.14 | 0.067
CC(C)(C)NCC(O)COc1cccc2c1CC(O)C(O)C2 (configuration not stated) [NADOLOL] | 780 |  |  |  |  | 0.86 |  |  |  | 
COc1cccc(C2(O)CCCCC2CN(C)C)c1 (configuration not stated) [TRAMADOL] | 300 | 4.2 | 5.29 | 1.46 | 0.71 | 0.85 | 1.44 |  |  | 
O=C(O)c1cc(/N=N/c2ccc(S(=O)(=O)Nc3ccccn3)cc2)ccc1O [SULFASALAZINE] | 13 |  |  |  |  | 0.005 |  |  |  | 0.032
CO[C@@]1(NC(=O)C(C(=O)O)c2ccc(O)cc2)C(=O)N2C(C(=O)O)=C(CSc3nnnn3C)CO[C@@H]21 (some centres not stated) [MOXALACTAM] | 3800 | 0.57 | 0.003 | 0.019 | 0.02 | 0.32 | 0.41 |  |  | 
C=CCc1ccccc1OCC(O)CNC(C)C (configuration not stated) [ALPRENOLOL] | 280 | 50 | 8.27 | 0.38 | 0.33 | 0.44 |  |  |  | 
COc1ccc2c(c1)c(CC(=O)O)c(C)n2C(=O)c1ccc(Cl)cc1 [INDOMETHACIN] | 200 | 14 | 0.01 | 0.11 | 0.17 | 0.01 | 0.27 |  |  | 
CC(C)NCC(O)COc1cccc2[nH]ccc12 (configuration not stated) [PINDOLOL] | 160 |  |  |  |  | 0.43 | 0.52 | 1.56 | 0.5 | 0.11
CC(NC(C)(C)C)C(=O)c1cccc(Cl)c1 (configuration not stated) [BUPROPION] | 79 | 16 |  |  |  | 0.31 | 2 | 9.78 | 2 | 0.49
CC(C)(C)NC(=O)[C@@H]1C[C@@H]2CCCC[C@@H]2CN1C[C@@H](O)[C@H](Cc1ccccc1)NC(=O)[C@H](CC(N)=O)NC(=O)c1ccc2ccccc2n1 | 3 | 208 | 0.08 | 0.055 |  | 0.007 | 0.096 |  |  | 
CC1(C)O[C@@H]2[C@@H](CO[C@@]3(COS(N)(=O)=O)OC(C)(C)O[C@@H]23)O1 [TOPIRAMATE] | 3400 | 3.2 |  |  |  | 0.79 | 1 | 0.84 | 0.33 | 0.63
CN(C)CCC=C1c2ccccc2CCc2ccccc21 [AMITRIPTYLINE] | 22 | 310 |  |  |  | 0.09 | 0.18 | 20.1 | 0.73 | 0.17
CN1CC[C@]23c4c5ccc(O[C@@H]6O[C@H](C(=O)O)[C@@H](O)[C@H](O)[C@H]6O)c4O[C@H]2[C@@H](O)C=C[C@H]3[C@H]1C5 [MORPHINE 3-GLUCURONIDE] | 2700 | 0.6 |  |  |  | 1 | 0.081 | 0.007 | 0.011 | 0.049
Cc1cn([C@H]2C[C@H](N=[N+]=[N-])[C@@H](CO)O2)c(=O)[nH]c1=O [ZIDOVUDINE] | 1200 |  |  |  |  | 0.64 |  |  |  | 
C=CCOc1ccccc1OCC(O)CNC(C)C (configuration not stated) [OXPRENOLOL] | 210 | 11.8 | 1.06 | 0.2 | 0.1 | 0.45 |  |  |  | 
COCCc1ccc(OCC(O)CNC(C)C)cc1 (configuration not stated) [METOPROLOL] | 750 |  |  |  |  | 0.9 |  |  |  | 
